This passage reports GI50 and TGI results from PubChem BioAssay (NCI).

Structures are written as SMILES.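 Method: 48-hour compound exposure of cells in 96-well plates, five concentrations, linear interpolation of endpoints. At the GI50, growth is halved. The concentration for full growth arrest is given as TGI.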 Some results are limits rather than exact numbers.

What all share (assay): NCI-60 cell line screen, 48 h
In assay [1] the test system is MALME-3M melanoma.
The subject of assay [2] is SK-MEL-5 melanoma.
Assay [3] has as its system A549 NSCLC.
In assay [4] the test system is SN12C renal.
In assay [5] the test system is HT29 colon.
For assay [6], the system named is HOP-62 NSCLC.
Assay [7] concerns SNB-75 CNS.
Assay [8] relates to OVCAR-5 ovarian.
For assay [9], the system named is 786-0 renal.
In assay [10] the test system is IGROV1 ovarian.

For the compound `Cc1cc(CC(C)CC(C)(C)C)n(O)c(=O)c1` (stereo not given) (tested in a mixture with another compound), the GI50 was 0.482 µM in assay [1]; 0.292 µM in assay [2]; 0.5 µM in [3]; 0.468 µM in [4]; 3.91 µM in [5]; 0.677 µM in assay [6]. The GI50 in [7] was 1.61 µM; in assay [8], 0.689 µM; in assay [9], 1.8 µM; in assay [10], 0.464 µM. Further, the TGI in assay [1] is 13 µM; in assay [2], 1.01 µM; in [3], over 49.7 µM; in assay [4], 32.7 µM; in [5] it was 17.5 µM; in assay [6], 16.1 µM. Besides, the TGI in assay [7] was 61.2 µM; in assay [8], over 58 µM; in [9] it was 5.7 µM; in assay [10], 16.7 µM.

Turning to `C=C1CCC2C(C)(COC(=O)CC)C(OC(=O)CC)CCC2(C)C1C/C=C1/C(=O)OCC1OC(=O)CC` (stereo not given), the GI50 in assay [1] was 2.08 µM; in [2] it was 2.08 µM; in assay [3] it was 2.03 µM; in assay [4], 2.63 µM; in assay [5], 0.987 µM; in assay [6], 1.7 µM. Moreover, the GI50 in assay [7] was 1.22 µM; in [8] it was 2.45 µM; in assay [9] it was 1.9 µM; in [10], 1.9 µM. The TGI in assay [1] is 3.99 µM; in assay [2], 4.39 µM; in assay [3], 4.22 µM; in [4] it was 10.1 µM; in assay [5], 2.24 µM; in assay [6], 3.27 µM. The TGI in [7] came to 3.68 µM; in [8] it was 5.35 µM; in [9], 3.48 µM; in [10] it was 3.69 µM.

With `CCOC(=O)CC1C(COC(=O)NC)OC(n2cnc3c(NC(=O)Nc4ccccc4)ncnc32)C1O[Si](C)(C)C(C)(C)C` (stereo not given), the GI50 is 3.34 µM in assay [1]; 5.7 µM in assay [2]; 6.93 µM in [3]; 2.17 µM in [4]; 3.97 µM in [5]; 14.7 µM in [6]. In addition, the GI50 is 10.3 µM in [7], 12.8 µM in assay [8], 7.94 µM in [9] and 13.7 µM in [10]. Further, the TGI in [1] is 33.1 µM; in [2], 18.6 µM; in assay [3], over 100 µM; in assay [4] it was 5.19 µM; in assay [5], 17.7 µM; in assay [6], 77.7 µM. Moreover, the TGI in [7] is 50.2 µM; in [8], 39.7 µM; in [9], 21.5 µM; in [10], over 100 µM.

With `O=C(OCc1ncc(-c2ccc(C(F)(F)F)cc2)c(NC2CCCCCC2)n1)c1c(F)c(F)c(F)c(F)c1F`, the GI50 was 16.6 µM in assay [1]; 16 µM in assay [2]; 18.2 µM in [3]; 12.1 µM in assay [4]; 13.8 µM in assay [5]; 18.8 µM in [6]. For the same compound, the GI50 is 13 µM in [7], 20 µM in [8], 11.4 µM in assay [9] and 2.86 µM in assay [10]. For the same compound, the TGI in assay [1] was 32.6 µM; in assay [2], 30.3 µM; in [3] it was 51.4 µM; in [4], 28 µM; in [5] it was 40 µM; in assay [6], 34.3 µM. Further, the TGI in [7] came out at 25.9 µM; in [8], 36.5 µM; in assay [9], 27.2 µM; in [10], 7.28 µM.

Take `OCC(O)c1nc2ccc3[nH]ncc3c2c2c1CCCC2` (stereo not given): the GI50 was 1.67 µM in assay [1]; 1.02 µM in [2]; 1.67 µM in [3]; 1.56 µM in assay [4]; 1.27 µM in assay [5]; 1.53 µM in [6]. Further, the GI50 was 0.849 µM in assay [7], 1.53 µM in [8], 1.77 µM in assay [9] and 1.38 µM in assay [10]. The TGI in assay [1] is 4.82 µM; in assay [2], 2.99 µM; in assay [3], over 50 µM; in [4], over 50 µM; in assay [5] it was over 50 µM; in [6] it was over 50 µM. Besides, the TGI was 1.6 µM in assay [7], over 50 µM in assay [8], over 50 µM in assay [9] and over 50 µM in assay [10].

Take `O=C(O)C(Cl)(c1ccccc1)c1ccccc1`: the TGI in assay [1], in [2], in assay [3], in assay [4], in assay [5] and in assay [6] was over 100 µM each time. Moreover, the TGI in assay [7], in assay [8], in assay [9] and in assay [10] was over 100 µM throughout.

`CC[N+]1(C)CCC(O)(c2ccc(OC)cc2)C(C(=O)c2ccc(OC)cc2)C1` (stereo not given): the TGI in assay [1] was found to be 17.2 µM; in [2], 29.5 µM; in [3], 41.3 µM; in assay [4], 32.9 µM; in assay [5] it was 15.7 µM; in [6] it was 34.1 µM. In addition, the TGI in assay [7] turned out to be 27.8 µM; in assay [8] it was 35.3 µM; in assay [9], 9.05 µM; in assay [10] it was 41.2 µM.

As to `CC(C)(C)[Si](C)(C)OC1[C@@H](O[Si](C)(C)C(C)(C)C)[C@@H](CNC(=O)NC(=O)CCl)O[C@H]1n1cnc2c(NC(=O)Nc3ccccc3)ncnc21` (stereo not given in full), the GI50 in assay [1] is 0.796 µM; in assay [2], 0.833 µM; in [3], 1.19 µM; in assay [4], 0.786 µM; in assay [5] it was 0.33 µM; in assay [6], 0.348 µM. The GI50 in [7] is 0.536 µM; in assay [8] it was 0.911 µM; in assay [9], 0.31 µM; in [10] it was 0.111 µM. In addition, the TGI in [1] was 1.62 µM; in assay [2] it was 1.55 µM; in [3], 3.51 µM; in assay [4], 1.69 µM; in [5], 1.05 µM; in assay [6] it was 0.953 µM. The TGI in [7] amounted to 1.28 µM; in assay [8], 2.08 µM; in assay [9], 0.633 µM; in [10] it was 0.233 µM.
